From patent US9896441B2 (Lycera Corporation, priority 2014, dated 2018)

How the values were obtained:
RORγ-LBD = target: T1, RORγ-LBD (Homo sapiens, UniProt P51449); experiment: RORγ-Ligand Binding Domain (LBD) TR-FRET Assay; type: biochemical
T1 construct: made in house; host or cells: SF9 cells (baculovirus); used as diluted lysate
T1 sequence (P51449 269-508 limits assumed): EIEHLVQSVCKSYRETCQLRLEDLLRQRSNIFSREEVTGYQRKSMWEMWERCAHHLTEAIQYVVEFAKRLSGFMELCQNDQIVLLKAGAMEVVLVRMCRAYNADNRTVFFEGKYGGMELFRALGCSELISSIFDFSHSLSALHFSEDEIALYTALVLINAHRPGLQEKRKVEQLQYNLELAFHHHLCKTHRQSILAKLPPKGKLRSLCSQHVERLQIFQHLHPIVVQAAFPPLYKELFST
How it was run: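 Lysate from SF9 cells expressing His-RORγ-LBD is diluted to about 3 nM final in 50 mM Tris pH 7.0 assay buffer. A biotin-tagged SRC1 LXXLL peptide goes in at 200 nM final, plus ursolic acid at 2 μM final. Test compounds carry 1% DMSO final; signal read by TR-FRET.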

Gal4-RORγ-LBD = target: T2, Gal4-RORγ-LBD (Homo sapiens, UniProt P51449); experiment: Gal4-RORγ Luciferase Reporter Assay in HEK-293T Cells; type: cell-based; settings: HEK-293 cells; for Gal4-RORγ Assay Max Response: maximum response
T2 construct: expressed in transfected cells
T2 sequence (P51449 269-508 limits assumed): T1 sequence (P51449 269-508 limits assumed)
Procedure: Assay procedures and results are described below.
In the following protocol, HEK-293 cells were transfected with a construct comprising the Gal4 DNA binding domain fused to the ligand binding domain of RORγ (Gal4-RORγ-LBD) in a pcDNA3.1neo plasmid, and also with a reporter construct comprising pGL4.31 Gal4-luciferase (Promega). Control cells were prepared similarly using empty pcDNA3.1neo and pGL4.31 vectors.
Trans-IT reagent (Mirus, 60 μL) at room temperature was added drop wise to OptiMEM (Invitrogen, 1.5 ml). This reagent mixture was mixed by inversion then incubated for 5 to 30 minutes at room temperature. It then was added to a solution of both expression vectors (5 μg each), mixed, and incubated at room temperature for about 20 minutes. HEK-293 cells were harvested from incubation flasks by removing the media, treating with TrypLE Express (Invitrogen), and incubating until the cells detached from the bottom of the flask (approximately 2-5 minutes). 10 Million cells were collected by centrifugation and re-suspended in 10 mL of Dulbecco's Modified Eagle Medium, High Glucose (DMEM, Invitrogen) containing 10% Fetal Bovine Serum and 100 IU each of penicillin and streptomycin. The re-suspended cells and the transfection mixture were added to a T75 flask, mixed and incubated overnight at 37° C. and 5% CO2.
The cells were harvested as described above, counted, and centrifuged to obtain the desired number of cells, then re-suspended in complete growth media at 0.75×10^6 cells/mL. The RORγ antagonist, ursolic acid, was added to the cells at a final concentration of […]. Cells were plated at 20 µL of cell suspension/well (10,000-15,000 cells/well) in white tissue culture treated 384 well plates. Test compounds were dissolved at 10 mM in DMSO then diluted into complete growth medium to 5× the final intended test concentration. These drug stock solutions, 5 µL/well were added to the tissue culture plate. The final DMSO concentration was 0.2%. The plates were briefly centrifuged then incubated overnight at 37° C. and 5% CO2. To conduct the assay, the tissue culture plates were allowed to equilibrate to room temperature and One-Glo luciferase reagent (Promega, 25 µL/well) was added. The plates were briefly centrifuged then incubated at room temperature for 10 minutes. The luciferase intensity was read on an Envision plate reader (Perkin Elmer). […] The luciferase signal in the absence of ursolic acid or test compound is defined at 100. The Max Response is the upper plateau in the signal as determined by line-fit using a 4-parameter logistic model in PRISM (GraphPad).

[1] = with 2 μM ursolic acid (RORγ antagonist), highest test concentration 10 μM
[2] = ursolic acid present, luciferase readout
[3] = luciferase reporter, with ursolic acid
[4] = luciferase reporter, in presence of ursolic acid

| EC50 (RORγ-LBD; [1]) | EC50 (Gal4-RORγ-LBD; [2]) | SMILES | further results |
| --- | --- | --- | --- |
| < 500 nM | 500 to 5000 nM | CCOC(=O)[C@@H]1Cc2ccc(OCc3c(F)cccc3Cl)cc2N(S(=O)(=O)c2ccc(F)c(OC)c2)[C@@H]1C | – |
| < 500 nM | > 10000 nM | CCOc1nn(CC)cc1S(=O)(=O)N1CC(C(=O)O)Cc2ccc(OCc3c(F)cccc3Cl)cc21 (stereo not drawn) | – |
| < 500 nM | 500 to 5000 nM | O=C(O)C1Cc2ccc(OCc3c(F)cccc3Cl)cc2N(S(=O)(=O)c2cccc(C(F)(F)F)c2)C1 (stereo not drawn) | – |
| < 500 nM | 500 to 5000 nM | O=C(O)CC[C@H]1CN(S(=O)(=O)c2cccc(C(F)(F)F)c2)c2cc(CCc3c(F)cccc3Cl)ccc2O1 | – |
| < 500 nM | 500 to 5000 nM | C/C(=C\c1ccc2c(c1)N(S(=O)(=O)c1cccc(C(F)(F)F)c1)CC(C(=O)O)C2)c1c(F)cccc1Cl (stereo not drawn) | – |
| < 500 nM | < 500 nM | CCOC(=O)C1Cc2ccc(CCc3c(F)cccc3Cl)cc2N(S(=O)(=O)c2cccc(C(F)(F)F)c2)C1 (stereo not drawn) | – |
| < 500 nM | < 500 nM | N#CCC[C@H]1CN(S(=O)(=O)c2cccc(C(F)(F)F)c2)c2cc(CCc3c(F)cccc3Cl)ccc2O1 | – |
| < 500 nM | < 500 nM | C/C(=C\c1ccc2c(c1)N(S(=O)(=O)c1cccc(C(F)(F)F)c1)C[C@H](CCC#N)O2)c1c(F)cccc1Cl | – |
| < 500 nM | 500 to 5000 nM | O=C(O)C[C@H]1CN(S(=O)(=O)c2cccc(C(F)(F)F)c2)c2cc(COc3c(F)cccc3Cl)ccc2O1 | – |
| < 500 nM | 500 to 5000 nM | O=S(=O)(c1cccc(C(F)(F)F)c1)N1C[C@H](CCO)Oc2ccc(COc3c(F)cccc3Cl)cc21 | – |
| < 500 nM | 5000 to 10000 nM | C[C@H]1CN(S(=O)(=O)c2cccc(C(F)(F)F)c2)c2cc(COc3c(F)cccc3Cl)ccc2O1 | – |
| < 500 nM | 5000 to 10000 nM | C[C@H]1CN(S(=O)(=O)c2ccc(F)cc2)c2cc(COc3c(F)cccc3Cl)ccc2O1 | – |
| – | – | CCOC(=O)[C@@H]1Cc2ccc(OC3CCc4ccccc43)cc2N(S(=O)(=O)c2ccc(F)c(OC)c2)[C@@H]1C (mixture of isomers) [Example 20, (2R,3R)-Ethyl 7-((2,3-dihydro-1H-inden-1-yl)oxy)-1-((4-fluoro-3-methoxyphenyl)sulfonyl)-2-methyl-1,2,3,4-tetrahydroquinoline-3-carboxylate] | EC50 (RORγ-LBD; RORγ-LBD TR-FRET): < 500 nM; EC50 (Gal4-RORγ-LBD; [3]): < 500 nM |
| – | – | COc1cc(S(=O)(=O)N2c3cc(OC4CCc5ccccc54)ccc3C[C@@H](C(=O)O)[C@H]2C)ccc1F (mixture of isomers) [Example 22, (2R,3R)-7-((2,3-Dihydro-1H-inden-1-yl)oxy)-1-((4-fluoro-3-methoxy-phenyl)sulfonyl)-2-methyl-1,2,3,4-tetrahydroquinoline-3-carboxylic acid] | EC50 (RORγ-LBD; RORγ-LBD TR-FRET): < 500 nM; EC50 (Gal4-RORγ-LBD; [3]): 500 to 5000 nM |
| – | – | C/C(=C\c1ccc2c(c1)N(S(=O)(=O)c1cc(F)cc(C(F)(F)F)c1)C[C@H](CCC(=O)O)O2)c1c(F)cccc1Cl [Example 86AQ, (S,E)-3-(6-(2-(2-chloro-6-fluorophenyl)-prop-1-en-1-yl)-4-((3-fluoro-5-(trifluoromethyl)-phenyl)sulfonyl)-3,4-dihydro-2H-benzo[1,4]oxazin-2-yl)propanoic acid] | EC50 (Gal4-RORγ-LBD; [3]): < 500 nM |
| – | – | CC(C)c1ccccc1/C=C/c1ccc2c(c1)N(S(=O)(=O)c1cccc(C(F)(F)F)c1)C[C@H](CCC(=O)O)O2 [Example 89CB, (S,E)-3-(6-(2-isopropylstyryl)-4-((3-(trifluoromethyl)-phenyl)-sulfonyl)-3,4-dihydro-2H-benzo[b][1,4]oxazin-2-yl)propanoic acid] | EC50 (Gal4-RORγ-LBD; [3]): 500 to 5000 nM |
| – | – | COC(=O)CC[C@H]1CN(S(=O)(=O)c2cccc(C(F)(F)F)c2)c2cc(/C=C/c3cccnc3C(F)(F)F)ccc2O1 [Example 89DF, methyl (S,E)-3-(4-((3-(trifluoromethyl)phenyl)-sulfonyl)-6-(2-(2-(trifluoromethyl)pyridin-3-yl)vinyl)-3,4-dihydro-2H-benzo[b][1,4]oxazin-2-yl)propanoate] | EC50 (Gal4-RORγ-LBD; [3]): > 10000 nM |
| – | – | COC(=O)CC[C@H]1CN(S(=O)(=O)c2cccc(C(F)(F)F)c2)c2cc(/C=C/c3ncccc3F)ccc2O1 [Example 89DG, methyl (S,E)-3-(6-(2-(3-fluoropyridin-2-yl)vinyl)-4-((3-(trifluoromethyl)phenyl)-sulfonyl)-3,4-dihydro-2H-benzo[b][1,4]oxazin-2-yl)propanoate] | EC50 (Gal4-RORγ-LBD; [3]): > 10000 nM |
| – | – | O=C(O)CC[C@H]1CN(S(=O)(=O)c2cccc(C(F)(F)F)c2)c2cc(/C=C3\CCCOC3)ccc2O1 [Example 95I, (S,E)-3-(6-((dihydro-2H-pyran-3(4H)-ylidene)methyl)-4-((3-(trifluoromethyl)phenyl)sulfonyl)-3,4-dihydro-2H-benzo[b][1,4]oxazin-2-yl)propanoic acid] | EC50 (Gal4-RORγ-LBD; [3]): 500 to 5000 nM |
| – | – | C/C(=C\c1ccc2c(c1)N(S(=O)(=O)c1cccc(C(F)(F)F)c1)C[C@H](CCC(=O)N1C3CCC1COC3)O2)c1c(F)cccc1Cl [Example 127K, 1-(3-oxa-8-azabicyclo-[3.2.1]octan-8-yl)-3-((S)-6-((E)-2-(2-chloro-6-fluorophenyl)prop-1-en-1-yl)-4-((3-(trifluoro-methyl)phenyl)sulfonyl)-3,4-dihydro-2H-benzo[b][1,4]oxazin-2-yl)propan-1-one] | Gal4-RORγ Assay Max Response (Gal4-RORγ-LBD; [4]): ** (a value in the range of greater than 90 to 150) |
| – | – | C/C(=C\c1ccc2c(c1)N(S(=O)(=O)c1cccc(C(F)(F)F)c1)C[C@H](CCC(=O)N1CC(O)C1)O2)c1c(F)cccc1Cl [Example 127L, (S,E)-3-(6-(2-(2-chloro-6-fluorophenyl)prop-1-en-1-yl)-4-((3-(trifluoro-methyl)phenyl)sulfonyl)-3,4-dihydro-2H-benzo[b][1,4]oxazin-2-yl)-1-(3-hydroxyazetidin-1-yl)propan-1-one] | Gal4-RORγ Assay Max Response (Gal4-RORγ-LBD; [4]): * (a value in the range of 30 to 90) |
| – | – | C/C(=C\c1ccc2c(c1)N(S(=O)(=O)c1cccc(C(F)(F)F)c1)C[C@H](CCC(=O)N1CC(C#N)C1)O2)c1c(F)cccc1Cl [Example 127M, (S,E)-1-(3-(6-(2-(2-chloro-6-fluorophenyl)-prop-1-en-1-yl)-4-((3-(trifluoromethyl)phenyl)-sulfonyl)-3,4-dihydro-2H-benzo[b][1,4]oxazin-2-yl)propanoyl)azetidine-3-carbonitrile] | EC50 (Gal4-RORγ-LBD; [4]): < 500 nM; Gal4-RORγ Assay Max Response (Gal4-RORγ-LBD; [4]): ** (a value in the range of greater than 90 to 150) |
| – | – | CC(=O)NC1CN(C(=O)CC[C@H]2CN(S(=O)(=O)c3cccc(C(F)(F)F)c3)c3cc(/C=C(\C)c4c(F)cccc4Cl)ccc3O2)C1 [Example 127N, (S,E)-N-(1-(3-(6-(2-(2-chloro-6-fluorophenyl)-prop-1-en-1-yl)-4-((3-(trifluoromethyl)phenyl)-sulfonyl)-3,4-dihydro-2H-benzo[b][1,4]oxazin-2-yl)propanoyl)azetidin-3-yl)acetamide] | EC50 (Gal4-RORγ-LBD; [4]): < 500 nM; Gal4-RORγ Assay Max Response (Gal4-RORγ-LBD; [4]): ** (a value in the range of greater than 90 to 150) |
| – | – | C/C(=C\c1ccc2c(c1)N(S(=O)(=O)c1cccc(C(F)(F)F)c1)C[C@H](CCC(=O)NCCC(=O)O)O2)c1c(F)cccc1Cl [Example 129P, (S,E)-3-(3-(6-(2-(2-chloro-6-fluorophenyl)-prop-1-en-1-yl)-4-((3-(trifluoromethyl)phenyl)-sulfonyl)-3,4-dihydro-2H-benzo[b][1,4]oxazin-2-yl)propanamido)-propanoic acid] | EC50 (Gal4-RORγ-LBD; [4]): < 500 nM; Gal4-RORγ Assay Max Response (Gal4-RORγ-LBD; [4]): *** (a value in the range of greater than 150 to 200) |
| – | – | COc1cc(S(=O)(=O)N2C[C@H](CCC(=O)O)Oc3ccc(/C=C(\C)C4CCCCC4)cc32)ccc1F [Example 190, (S,E)-3-(6-(2-cyclohexylprop-1-en-1-yl)-4-((4-fluoro-3-methoxyphenyl)sulfonyl)-3,4-dihydro-2H-benzo[b][1,4]oxazin-2-yl)propanoic acid] | EC50 (Gal4-RORγ-LBD; [4]): > 10000 nM |
